By MIC is commonly meant the smallest concentration in the dilution series that meets the test's criterion for growth inhibition.

Structures are written as SMILES. ≈ marks a conversion by molar mass, not a printed value.

The test system of one test is M. catarrhalis A894. Description: Minimal inhibitory concentration (MIC), microdilution method in cation-adjusted Mueller-Hinton Broth (CLSI M7-A7). It counts as cell-based. The conditions noted are these: Moraxella catarrhalis, strain A894. As for the experimental part:
Minimal inhibitory concentrations (MICs; mg/1) were determined in cation-adjusted Mueller-Hinton Broth by a microdilution method following the description given in “Methods for Dilution Antimicrobial Susceptibility Tests for Bacteria that Grow Aerobically”, Approved standard, 7th ed., Clinical and Laboratory Standards Institute (CLSI) Document M7-A7, Wayne, Pa., USA, 2006.
On to `O=C1O[C@H](CCNC[C@@H]2Cn3c(=O)ccc4ccc(F)c2c43)CN1c1cc2c(cn1)OCCO2` (racemic) [Example 42, (RS)-1-({2-[(RS)-3-(2,3-dihydro-[1,4]dioxino[2,3-c]pyridin-7-yl)-2-oxo-oxazolidin-5-yl]-ethylamino}-methyl)-9-fluoro-1,2-dihydro-pyrrolo[3,2,1-ij]quinolin-4-one], for which the MIC stood at 2 µg/mL (≈ 4.29 µM).

Turning to `O=C1O[C@H](CCNC[C@@H]2Cn3c(=O)ccc4ccc(F)c2c43)CN1c1ccc2c(n1)OCCO2` (racemic) [Example 43, (RS)-1-({2-[(RS)-3-(2,3-dihydro-[1,4]dioxino[2,3-b]pyridin-6-yl)-2-oxo-oxazolidin-5-yl]-ethylamino}-methyl)-9-fluoro-1,2-dihydro-pyrrolo[3,2,1-ij]quinolin-4-one], the MIC was 1 µg/mL (≈ 2.14 µM).

The molecule `O=C1COc2ccc(N3C[C@@H](CCNC[C@@H]4Cn5c(=O)ccc6ccc(F)c4c65)OC3=O)nc2N1` (racemic) [Example 47, (RS)-9-fluoro-1-({2-[(RS)-2-oxo-3-(3-oxo-3,4-dihydro-2H-pyrido[3,2-b][1,4]oxazin-6-yl)-oxazolidin-5-yl]-ethylamino}-methyl)-1,2-dihydro-pyrrolo[3,2,1-ij]quinolin-4-one] returned an MIC of at most 0.031 µg/mL.

`O=C1CSc2ccc(N3C[C@@H](CCCNC[C@@H]4Cn5c(=O)ccc6cccc4c65)OC3=O)cc2N1` (racemic) [Example 83, (RS)-1-({3-[(RS)-2-oxo-3-(3-oxo-3,4-dihydro-2H-benzo[1,4]thiazin-6-yl)-oxazolidin-5-yl]-propylamino}-methyl)-1,2-dihydro-pyrrolo[3,2,1-ij]quinolin-4-one] gave an MIC of at most 0.031 µg/mL.

Molecule `O=C1CSc2ccc(N3C[C@H]([C@H](O)CCN[C@H]4Cn5c(=O)ccc6ccc(F)c4c65)OC3=O)cc2N1` (racemic) [Example 113, (1RS)-9-fluoro-1-{(3RS)-3-hydroxy-3-[(5RS)-2-oxo-3-(3-oxo-3,4-dihydro-2H-benzo[1,4]thiazin-6-yl)-oxazolidin-5-yl]-propylamino}-1,2-dihydro-pyrrolo[3,2,1-ij]quinolin-4-one] showed an MIC of at most 0.031 µg/mL.

As to `O=C1CSc2ccc(N3C[C@@H](CCCCN[C@H]4Cn5c(=O)ccc6ccc(F)c4c65)OC3=O)cc2N1` (racemic) [Example 159, (RS)-9-fluoro-1-{4-[(RS)-2-oxo-3-(3-oxo-3,4-dihydro-2H-benzo[1,4]thiazin-6-yl)-oxazolidin-5-yl]-butylamino}-1,2-dihydro-pyrrolo[3,2,1-ij]quinolin-4-one], the MIC is at most 0.031 µg/mL.

The molecule `COC(=O)[C@H]1[C@H](NCCC[C@@H]2CN(c3ccc4c(c3)NC(=O)CS4)C(=O)O2)c2c(F)ccc3ccc(=O)n1c23` (relative stereo) [Example 181, (1R*,2R*)-9-fluoro-4-oxo-1-{3-[(R)-2-oxo-3-(3-oxo-3,4-dihydro-2H-benzo[1,4]thiazin-6-yl)-oxazolidin-5-yl]-propylamino}-1,2-dihydro-4H-pyrrolo[3,2,1-ij]quinoline-2-carboxylic acid methyl ester] yielded a minimal inhibitory concentration (MIC) of at most 0.031 µg/mL.

On to `O=C1CSc2ccc(N3C[C@@H](CCCN[C@@H]4c5c(F)ccc6ccc(=O)n(c56)[C@H]4CO)OC3=O)cc2N1` (relative stereo) [Example 182, (1R*,2R*)-9-fluoro-2-hydroxymethyl-1-{3-[(R)-2-oxo-3-(3-oxo-3,4-dihydro-2H-benzo[1,4]thiazin-6-yl)-oxazolidin-5-yl]-propylamino}-1,2-dihydro-pyrrolo[3,2,1-ij]quinolin-4-one], for which the MIC is at most 0.031 µg/mL.

In the case of `C[C@H]1[C@H](NCCC[C@@H]2CN(c3ccc4c(c3)NC(=O)CS4)C(=O)O2)c2c(F)ccc3ccc(=O)n1c23` (relative stereo) [Example 183, (1R*,2S*)-9-fluoro-2-methyl-1-{3-[(R)-2-oxo-3-(3-oxo-3,4-dihydro-2H-benzo[1,4]thiazin-6-yl)-oxazolidin-5-yl]-propylamino}-1,2-dihydro-pyrrolo[3,2,1-ij]quinolin-4-one], the MIC was at most 0.031 µg/mL.

Regarding `C[C@H]1[C@H](NCCC[C@H]2CN(c3ccc4c(c3)NC(=O)CS4)C(=O)O2)c2c(F)ccc3ccc(=O)n1c23` (relative stereo) [Example 184, (1R*,2S*)-9-fluoro-2-methyl-1-{3-[(S)-2-oxo-3-(3-oxo-3,4-dihydro-2H-benzo[1,4]thiazin-6-yl)-oxazolidin-5-yl]-propylamino}-1,2-dihydro-pyrrolo[3,2,1-ij]quinolin-4-one], the MIC is at most 0.031 µg/mL.

Molecule `C[C@H]1[C@H](NCCC[C@@H]2CN(c3ccc4c(n3)NC(=O)CS4)C(=O)O2)c2c(F)ccc3ccc(=O)n1c23` (relative stereo) [Example 185, (1R*,2S*)-9-fluoro-2-methyl-1-{3-[(R)-2-oxo-3-(3-oxo-3,4-dihydro-2H-pyrido[3,2-b][1,4]thiazin-6-yl)-oxazolidin-5-yl]-propylamino}-1,2-dihydro-pyrrolo[3,2,1-ij]quinolin-4-one] returned an MIC of at most 0.031 µg/mL.

Turning to `Cl.O=C1CSc2ccc(N3C[C@@H](CCCN[C@@H]4c5c(F)ccc6ccc(=O)n(c56)[C@H]4C(=O)O)OC3=O)cc2N1` (relative stereo) [Example 186, (1R*,2R*)-9-fluoro-4-oxo-1-{3-[(R)-2-oxo-3-(3-oxo-3,4-dihydro-2H-benzo[1,4]thiazin-6-yl)-oxazolidin-5-yl]-propylamino}-1,2-dihydro-4H-pyrrolo[3,2,1-ij]quinoline-2-carboxylic acid hydrochloride], 0.5 µg/mL was the least that counted as inhibitory (MIC).

Molecule `NC[C@H]1[C@H](NCCC[C@@H]2CN(c3ccc4c(c3)NC(=O)CS4)C(=O)O2)c2c(F)ccc3ccc(=O)n1c23` (relative stereo) [Example 188, (1R*,2S*)-2-aminomethyl-9-fluoro-1-{3-[(R)-2-oxo-3-(3-oxo-3,4-dihydro-2H-benzo[1,4]thiazin-6-yl)-oxazolidin-5-yl]-propylamino}-1,2-dihydro-pyrrolo[3,2,1-ij]quinolin-4-one] returned an MIC of at most 0.031 µg/mL.

Consider `O=C1CSc2ccc(N3C[C@@H](CCNC[C@@H]4Cn5c(=O)ccc6nccc4c65)OC3=O)cc2N1` [Example 15, (4R)-4-({2-[(R)-2-oxo-3-(3-oxo-3,4-dihydro-2H-benzo[1,4]thiazin-6-yl)-oxazolidin-5-yl]-ethylamino}-methyl)-4,5-dihydro-pyrrolo[3,2,1-de][1,5]naphthyridin-7-one], for which the MIC is at most 0.031 µg/mL.

`O=C1CSc2ccc(N3C[C@@H](CCCN[C@H]4Cn5c(=O)ccc6nccc4c65)OC3=O)cc2N1` [Example 18, (4R)-4-{3-[(R)-2-oxo-3-(3-oxo-3,4-dihydro-2H-benzo[1,4]thiazin-6-yl)-oxazolidin-5-yl]-propylamino}-4,5-dihydro-pyrrolo[3,2,1-de][1,5]naphthyridin-7-one] returned an MIC of at most 0.031 µg/mL.

`O=C1COc2ccc(N3C[C@@H](CCCN[C@H]4Cn5c(=O)ccc6nccc4c65)OC3=O)cc2N1` [Example 19, (4R)-4-{3-[(R)-2-oxo-3-(3-oxo-3,4-dihydro-2H-benzo[1,4]oxazin-6-yl)-oxazolidin-5-yl]-propylamino}-4,5-dihydro-pyrrolo[3,2,1-de][1,5]naphthyridin-7-one]: the MIC was at most 0.031 µg/mL.

`O=C1CSc2ccc(N3C[C@@H](CCCN[C@@H]4Cn5c(=O)ccc6nccc4c65)OC3=O)cc2N1` [Example 39, (S)-4-{3-[(R)-2-oxo-3-(3-oxo-3,4-dihydro-2H-benzo[1,4]thiazin-6-yl)-oxazolidin-5-yl]-propylamino}-4,5-dihydro-pyrrolo[3,2,1-de][1,5]naphthyridin-7-one] registered an MIC of at most 0.031 µg/mL.

Molecule `O=C1COc2ccc(N3C[C@@H](CCCN[C@@H]4Cn5c(=O)ccc6nccc4c65)OC3=O)cc2N1` [Example 40, (S)-4-{3-[(R)-2-oxo-3-(3-oxo-3,4-dihydro-2H-benzo[1,4]oxazin-6-yl)-oxazolidin-5-yl]-propylamino}-4,5-dihydro-pyrrolo[3,2,1-de][1,5]naphthyridin-7-one] gave an MIC of 0.125 µg/mL (≈ 0.271 µM).

Turning to `O=C1CSc2ccc(N3C[C@H](CCN[C@@H]4Cn5c(=O)ccc6nccc4c65)OC3=O)cc2N1` [Example 41, (S)-4-{2-[(S)-2-oxo-3-(3-oxo-3,4-dihydro-2H-benzo[1,4]thiazin-6-yl)-oxazolidin-5-yl]-ethylamino}-4,5-dihydro-pyrrolo[3,2,1-de][1,5]naphthyridin-7-one], the MIC was 0.5 µg/mL (≈ 1.08 µM).

Turning to `O=C1CSc2ccc(N3C[C@@H](CCCN[C@@H]4Cn5c(=O)cnc6cccc4c65)OC3=O)cc2N1` [Example 48, (S)-6-{3-[(R)-2-oxo-3-(3-oxo-3,4-dihydro-2H-benzo[1,4]thiazin-6-yl)-oxazolidin-5-yl]-propylamino}-5,6-dihydro-pyrrolo[1,2,3-de]quinoxalin-3-one], the MIC was at most 0.031 µg/mL.

The test is the same for the next values; noted with them: strain A894.
As for `O=C1CSc2ccc(N3C[C@@H](CCNCC4Cn5c(=O)ccc6cccc4c65)OC3=O)cc2N1` (mixture of isomers) [Example 53, (RS)-1-({2-[(R)-2-oxo-3-(3-oxo-3,4-dihydro-2H-benzo[1,4]thiazin-6-yl)-oxazolidin-5-yl]-ethylamino}-methyl)-1,2-dihydro-pyrrolo[3,2,1-U]quinolin-4-one], the “MIC for M. catarrhalis A894” value is “≦0.031 mg/l”.

For the molecule `O=C1CSc2ccc(N3C[C@H](CCNCC4Cn5c(=O)ccc6cccc4c65)OC3=O)cc2N1` (mixture of isomers) [Example 61, (RS)-1-({2-[(S)-2-oxo-3-(3-oxo-3,4-dihydro-2H-benzo[1,4]thiazin-6-yl)-oxazolidin-5-yl]-ethylamino}-methyl)-1,2-dihydro-pyrrolo[3,2,1-U]quinolin-4-one], the “MIC for M. catarrhalis A894” value is reported as “≦0.031 mg/l”.

On to `O=C1COc2ccc(N3C[C@H](CCNCC4Cn5c(=O)ccc6cccc4c65)OC3=O)cc2N1` (mixture of isomers) [Example 62, (RS)-1-({2-[(S)-2-oxo-3-(3-oxo-3,4-dihydro-2H-benzo[1,4]oxazin-6-yl)-oxazolidin-5-yl]-ethylamino}-methyl)-1,2-dihydro-pyrrolo[3,2,1-U]quinolin-4-one], for which the “MIC for M. catarrhalis A894” value is “≦0.031 mg/l”.

For the origin of these results see patent publication US9822114B2, “Tricyclic oxazolidinone antibiotic compounds” (Idorsia Pharmaceuticals Ltd, priority 2008, dated 2017).
